From ChEMBL document CHEMBL4765420, “Design, synthesis and biological evaluation of novel HDAC inhibitors with improved pharmacokinetic profile in breast cancer” (Eur J Med Chem, 2020)
The source made the active and inactive calls. No cut-off for these calls is given here.

What was measured:
MDA-MB-231 [1] = test: Antiproliferative activity against human MDA-MB-231 cells measured after 24 hrs by MTT assay; format: functional, cell-based; conditions: MDA-MB-231, 24 h
Histone deacetylase 1 = Histone deacetylase 1 (Homo sapiens, UniProt Q13547); test: Inhibition of recombinant human His-tagged HDAC1 expressed in insect cells using Ac-Leu-Gly-Lys(Ac)-AMC as substrate measured after 30 mins by fluorescence assay
Chain of Histone deacetylase 1 (Q13547 whole entry, the tested form may be a part): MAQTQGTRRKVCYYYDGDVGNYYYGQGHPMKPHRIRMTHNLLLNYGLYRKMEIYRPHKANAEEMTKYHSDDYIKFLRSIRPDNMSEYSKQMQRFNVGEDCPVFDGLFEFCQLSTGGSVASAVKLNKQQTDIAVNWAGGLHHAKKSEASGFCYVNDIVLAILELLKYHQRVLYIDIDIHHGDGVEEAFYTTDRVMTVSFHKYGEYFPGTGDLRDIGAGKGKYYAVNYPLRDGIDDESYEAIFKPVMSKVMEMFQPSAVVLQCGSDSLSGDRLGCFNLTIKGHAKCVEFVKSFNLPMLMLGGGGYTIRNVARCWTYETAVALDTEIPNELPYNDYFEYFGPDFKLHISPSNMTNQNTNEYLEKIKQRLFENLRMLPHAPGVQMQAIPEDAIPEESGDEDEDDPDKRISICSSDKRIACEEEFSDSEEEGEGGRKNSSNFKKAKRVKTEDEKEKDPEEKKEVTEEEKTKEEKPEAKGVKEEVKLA

[2] = target: Histone deacetylase 3/NCoR1 (Homo sapiens, UniProt O15379); test: Inhibition of recombinant human GST-fused HDAC3/NCOR1 (397 to 503 residues) expressed in baculovirus infected insect cells using Ac-Leu-Gly-Lys(Ac)-AMC as substrate measured after 30 mins by fluorescence assay
Chain of Histone deacetylase 3/NCoR1 (O15379 whole entry, the tested form may be a part): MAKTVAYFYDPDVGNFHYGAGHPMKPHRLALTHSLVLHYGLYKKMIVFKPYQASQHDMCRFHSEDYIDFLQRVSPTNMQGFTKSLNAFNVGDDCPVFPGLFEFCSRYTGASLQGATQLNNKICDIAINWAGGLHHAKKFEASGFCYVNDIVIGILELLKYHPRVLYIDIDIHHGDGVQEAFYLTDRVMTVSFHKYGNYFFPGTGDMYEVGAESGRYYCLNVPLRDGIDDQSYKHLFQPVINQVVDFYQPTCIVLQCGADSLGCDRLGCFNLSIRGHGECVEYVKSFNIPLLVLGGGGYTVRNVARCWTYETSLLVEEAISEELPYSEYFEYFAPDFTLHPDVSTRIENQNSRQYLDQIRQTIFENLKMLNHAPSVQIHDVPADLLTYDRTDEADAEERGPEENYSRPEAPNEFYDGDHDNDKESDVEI
Chain of Histone deacetylase 3/NCoR1 (O75376 whole entry, further chain, the tested form may be a part): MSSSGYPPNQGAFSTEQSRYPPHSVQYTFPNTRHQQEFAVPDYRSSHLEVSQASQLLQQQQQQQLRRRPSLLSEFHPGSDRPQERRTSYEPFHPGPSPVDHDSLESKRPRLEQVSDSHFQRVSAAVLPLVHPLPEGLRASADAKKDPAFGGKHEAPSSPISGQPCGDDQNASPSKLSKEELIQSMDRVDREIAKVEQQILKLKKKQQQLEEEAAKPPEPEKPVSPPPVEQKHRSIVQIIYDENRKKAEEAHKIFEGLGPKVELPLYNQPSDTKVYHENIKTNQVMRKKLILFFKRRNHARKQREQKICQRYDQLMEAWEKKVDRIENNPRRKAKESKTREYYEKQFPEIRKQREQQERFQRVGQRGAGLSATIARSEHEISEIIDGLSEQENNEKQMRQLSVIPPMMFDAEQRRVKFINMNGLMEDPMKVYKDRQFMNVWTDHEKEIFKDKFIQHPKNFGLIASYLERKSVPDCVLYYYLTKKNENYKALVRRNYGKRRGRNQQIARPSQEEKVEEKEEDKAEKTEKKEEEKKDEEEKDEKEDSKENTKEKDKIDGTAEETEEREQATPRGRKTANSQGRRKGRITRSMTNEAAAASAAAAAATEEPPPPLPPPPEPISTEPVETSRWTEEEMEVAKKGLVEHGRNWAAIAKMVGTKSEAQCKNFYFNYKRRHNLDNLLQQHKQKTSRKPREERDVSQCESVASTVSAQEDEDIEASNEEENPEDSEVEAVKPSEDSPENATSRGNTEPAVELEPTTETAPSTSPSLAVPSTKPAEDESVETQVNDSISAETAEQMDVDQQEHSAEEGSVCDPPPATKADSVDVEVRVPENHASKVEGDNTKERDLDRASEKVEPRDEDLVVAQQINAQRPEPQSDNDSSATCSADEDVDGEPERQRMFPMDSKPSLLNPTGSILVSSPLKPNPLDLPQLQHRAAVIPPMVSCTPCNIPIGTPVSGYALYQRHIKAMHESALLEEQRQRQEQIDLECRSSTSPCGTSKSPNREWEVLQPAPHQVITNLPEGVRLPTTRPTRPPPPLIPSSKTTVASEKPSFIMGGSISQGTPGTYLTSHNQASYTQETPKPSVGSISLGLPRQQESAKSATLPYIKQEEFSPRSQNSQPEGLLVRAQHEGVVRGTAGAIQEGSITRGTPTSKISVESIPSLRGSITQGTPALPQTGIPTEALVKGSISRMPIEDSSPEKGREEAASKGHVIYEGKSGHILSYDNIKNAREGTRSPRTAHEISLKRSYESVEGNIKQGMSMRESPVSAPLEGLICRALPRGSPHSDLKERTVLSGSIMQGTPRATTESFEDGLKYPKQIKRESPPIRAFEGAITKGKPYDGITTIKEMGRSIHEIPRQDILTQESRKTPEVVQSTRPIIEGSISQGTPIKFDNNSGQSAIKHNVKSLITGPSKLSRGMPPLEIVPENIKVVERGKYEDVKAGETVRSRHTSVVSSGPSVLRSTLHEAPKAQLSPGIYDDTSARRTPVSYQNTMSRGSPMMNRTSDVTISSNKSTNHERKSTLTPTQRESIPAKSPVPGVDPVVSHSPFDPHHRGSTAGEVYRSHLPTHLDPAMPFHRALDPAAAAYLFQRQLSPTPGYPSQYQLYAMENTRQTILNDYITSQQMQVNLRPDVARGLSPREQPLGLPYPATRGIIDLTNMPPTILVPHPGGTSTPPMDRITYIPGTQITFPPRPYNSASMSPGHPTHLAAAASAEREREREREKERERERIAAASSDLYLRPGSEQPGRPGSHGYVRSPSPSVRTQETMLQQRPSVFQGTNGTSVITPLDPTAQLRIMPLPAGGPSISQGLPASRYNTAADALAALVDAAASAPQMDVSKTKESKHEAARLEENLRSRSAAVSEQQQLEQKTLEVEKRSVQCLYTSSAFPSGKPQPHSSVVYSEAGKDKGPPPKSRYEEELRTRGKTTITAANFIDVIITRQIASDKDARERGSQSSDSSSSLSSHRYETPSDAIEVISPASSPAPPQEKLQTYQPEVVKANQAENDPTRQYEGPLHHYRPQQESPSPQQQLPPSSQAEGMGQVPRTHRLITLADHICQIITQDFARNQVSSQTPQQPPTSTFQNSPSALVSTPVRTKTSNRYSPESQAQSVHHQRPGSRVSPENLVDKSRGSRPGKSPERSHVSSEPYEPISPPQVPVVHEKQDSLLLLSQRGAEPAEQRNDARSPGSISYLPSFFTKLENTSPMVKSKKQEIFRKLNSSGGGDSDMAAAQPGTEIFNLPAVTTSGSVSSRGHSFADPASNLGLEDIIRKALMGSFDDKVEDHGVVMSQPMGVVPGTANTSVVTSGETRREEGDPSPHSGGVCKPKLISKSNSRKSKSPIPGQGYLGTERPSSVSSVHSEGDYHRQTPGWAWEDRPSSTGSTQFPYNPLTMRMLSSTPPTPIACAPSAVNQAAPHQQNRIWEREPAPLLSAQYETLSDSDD

Histone deacetylase 8 = target: T1, Histone deacetylase 8 (Homo sapiens, UniProt Q9BY41); test: Inhibition of recombinant human full-length C-terminal His-tagged HDAC8 expressed in baculovirus infected Sf9 insect cells using Ac-Leu-Gly-Lys(Tfa)-AMC as substrate measured after 30 mins by fluorescence assay
T1 sequence (Q9BY41 whole entry): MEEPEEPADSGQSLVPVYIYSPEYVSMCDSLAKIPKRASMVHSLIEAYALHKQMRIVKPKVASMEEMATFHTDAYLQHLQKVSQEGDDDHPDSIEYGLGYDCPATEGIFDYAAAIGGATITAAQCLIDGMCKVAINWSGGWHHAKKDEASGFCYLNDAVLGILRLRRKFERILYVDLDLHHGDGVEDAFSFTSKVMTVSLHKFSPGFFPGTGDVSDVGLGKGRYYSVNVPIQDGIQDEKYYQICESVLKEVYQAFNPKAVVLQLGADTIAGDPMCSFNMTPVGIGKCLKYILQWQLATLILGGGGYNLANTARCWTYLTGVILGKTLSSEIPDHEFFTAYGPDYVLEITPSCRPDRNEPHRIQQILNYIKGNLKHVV

MDA-MB-231 [3] = test: Antiproliferative activity against human MDA-MB-231 cells measured after 72 hrs by MTT assay; format: functional, cell-based; conditions: MDA-MB-231, 72 h
[4] = target: T2, Protein deacetylase HDAC6 (Homo sapiens) (UniProt Q9UBN7); test: Inhibition of HDAC6 in human MDA-MB-231 cells assessed as increase in HSP90 acetylation at 2.5 to 10 uM measured after 24 hrs by Western blot analysis; format: cell-based; conditions: dose 2.5-10 µM
T2 sequence (whole entry): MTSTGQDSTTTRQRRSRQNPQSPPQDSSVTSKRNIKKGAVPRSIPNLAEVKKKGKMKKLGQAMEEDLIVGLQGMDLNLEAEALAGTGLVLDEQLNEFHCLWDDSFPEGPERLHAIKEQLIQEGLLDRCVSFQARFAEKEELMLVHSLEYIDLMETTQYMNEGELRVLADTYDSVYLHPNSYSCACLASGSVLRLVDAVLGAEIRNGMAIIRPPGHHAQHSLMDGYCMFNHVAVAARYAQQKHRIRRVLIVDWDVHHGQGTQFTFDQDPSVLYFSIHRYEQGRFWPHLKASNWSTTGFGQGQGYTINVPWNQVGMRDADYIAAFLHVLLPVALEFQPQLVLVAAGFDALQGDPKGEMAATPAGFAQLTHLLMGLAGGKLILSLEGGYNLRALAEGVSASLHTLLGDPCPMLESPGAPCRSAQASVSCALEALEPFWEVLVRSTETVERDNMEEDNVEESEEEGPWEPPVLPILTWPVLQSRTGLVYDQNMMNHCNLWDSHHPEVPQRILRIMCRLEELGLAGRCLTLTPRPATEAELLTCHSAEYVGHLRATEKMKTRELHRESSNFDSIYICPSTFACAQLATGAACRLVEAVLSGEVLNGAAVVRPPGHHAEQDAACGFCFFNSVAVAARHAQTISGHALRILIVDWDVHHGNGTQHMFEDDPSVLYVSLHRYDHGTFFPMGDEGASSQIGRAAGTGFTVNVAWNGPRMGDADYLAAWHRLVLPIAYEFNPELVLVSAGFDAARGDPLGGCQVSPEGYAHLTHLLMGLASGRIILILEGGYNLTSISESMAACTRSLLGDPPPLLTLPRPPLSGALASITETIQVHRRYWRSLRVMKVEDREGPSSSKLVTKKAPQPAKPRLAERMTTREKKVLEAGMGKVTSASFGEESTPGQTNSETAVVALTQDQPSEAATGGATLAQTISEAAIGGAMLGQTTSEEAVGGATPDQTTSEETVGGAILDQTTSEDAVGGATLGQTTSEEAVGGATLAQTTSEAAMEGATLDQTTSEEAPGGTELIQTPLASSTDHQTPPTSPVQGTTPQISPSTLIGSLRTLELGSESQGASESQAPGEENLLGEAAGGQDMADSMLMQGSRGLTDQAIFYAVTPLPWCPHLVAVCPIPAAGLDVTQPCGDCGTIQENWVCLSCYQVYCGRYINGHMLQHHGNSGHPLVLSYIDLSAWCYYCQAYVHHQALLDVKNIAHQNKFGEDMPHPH

MDA-MB-231 [5] = test: Induction of apoptosis in human MDA-MB-231 cells assessed as late apoptotic cells at 2.5 uM measured after 24 hrs by Annexin-V/propidium iodide staining based flow cytometry (reference value: 0.71 to 2.94%); format: functional
MDA-MB-231 [6] = test: Induction of apoptosis in human MDA-MB-231 cells assessed as viable cells at 10 uM measured after 24 hrs by Annexin-V/propidium iodide staining based flow cytometry (reference value: 95.68 to 98.38%); format: functional; conditions: read-out: Activity
MDA-MB-231 [7] = test: Induction of apoptosis in human MDA-MB-231 cells assessed as late apoptotic cells at 10 uM measured after 24 hrs by Annexin-V/propidium iodide staining based flow cytometry (reference value: 0.71 to 2.94%); format: functional
MDA-MB-231 [8] = test: Induction of apoptosis in human MDA-MB-231 cells assessed as down regulation of Bcl-2 expression at 2.5 to 10 uM measured after 24 hrs by Western blot analysis; format: functional, cell-based; conditions: dose 2.5-10 µM
MDA-MB-231 [9] = test: Induction of apoptosis in human MDA-MB-231 cells assessed as increase in cleaved caspase-3 expression at 2.5 to 10 uM measured after 24 hrs by Western blot analysis; format: functional, cell-based; conditions: dose 2.5-10 µM
MDA-MB-231 [10] = test: Induction of apoptosis in human MDA-MB-231 cells assessed as increase in cleaved caspase-9 expression at 2.5 to 10 uM measured after 24 hrs by Western blot analysis; format: functional, cell-based; conditions: dose 2.5-10 µM
MDA-MB-231 [11] = test: Induction of endoplasmic reticulum stress in human MDA-MB-231 cells assessed as increase in PERK expression at 2.5 to 10 uM measured after 24 hrs by DAPI staining based immunofluorescence assay; format: functional, cell-based; conditions: dose 2.5-10 µM
MDA-MB-231 [12] = test: Induction of autophagy in human MDA-MB-231 cells expressing GFP-mRFP-LC3 assessed as increase in LC3 punta aggregation at 2.5 to 10 uM measured after 24 hrs by immunofluorescence assay; format: functional, cell-based; conditions: dose 2.5-10 µM

## COc1cc(OC)c2c(N3CCS(=O)(=O)CC3)nc(-c3cc(C)c(OCCCCCC(=O)NO)c(C)c3)nc2c1
MDA-MB-231 [1]
  IC50: 2370 nM
Histone deacetylase 1
  IC50: 99.6 nM
[2]
  IC50: 106 nM
Histone deacetylase 8
  IC50: 404 nM
MDA-MB-231 [3]
  IC50: 898 nM
[4]
  inhibition: Active
MDA-MB-231 [5]
  Activity: 3.01%
MDA-MB-231 [6]
  viability at 10 µM: 25.6%
MDA-MB-231 [7]
  Activity: 35.5%
MDA-MB-231 [8]
  Activity: Active
MDA-MB-231 [9]
  Activity: Active
MDA-MB-231 [10]
  Activity: Active
MDA-MB-231 [11]
  Activity: Active
MDA-MB-231 [12]
  Activity: Active
